# Assay results published in PubChem BioAssay (NCI).
#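 Compound exposure: 48 hours, 5 concentrations, 96-well plates. GI50 is the concentration that inhibits growth by half. TGI denotes the concentration required for complete inhibition of growth.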
# Experiments:
# Assay in all cases: NCI-60 cell line screen, 48 h
# BT-549 breast = test system: BT-549 breast
# SN12C renal = test system: SN12C renal
# IGROV1 ovarian = test system: IGROV1 ovarian
# UO-31 renal = test system: UO-31 renal
# RXF 393 renal = test system: RXF 393 renal
# SF-539 CNS = test system: SF-539 CNS
# HCC-2998 colon = test system: HCC-2998 colon
# U251 CNS = test system: U251 CNS
# HCT-116 colon = test system: HCT-116 colon
# MDA-MB-231 breast = test system: MDA-MB-231 breast
# SW-620 colon = test system: SW-620 colon
# NCI-H522 lung = test system: NCI-H522 lung
# EKVX NSCLC = test system: EKVX NSCLC
# NCI/ADR-RES ovarian = test system: NCI/ADR-RES ovarian
# MDA-MB-435 = test system: MDA-MB-435
# RPMI-8226 leukemia = test system: RPMI-8226 leukemia
# A549 NSCLC = test system: A549 NSCLC
# T-47D breast = test system: T-47D breast
# SNB-19 CNS = test system: SNB-19 CNS
# HS 578T breast = test system: HS 578T breast
# MCF7 breast = test system: MCF7 breast
# SF-268 CNS = test system: SF-268 CNS
# HOP-62 NSCLC = test system: HOP-62 NSCLC
# ACHN renal = test system: ACHN renal
# SK-OV-3 ovarian = test system: SK-OV-3 ovarian
# HT29 colon = test system: HT29 colon
# OVCAR-5 ovarian = test system: OVCAR-5 ovarian
# COLO 205 colon = test system: COLO 205 colon
# M14 melanoma = test system: M14 melanoma
# UACC-257 melanoma = test system: UACC-257 melanoma
# OVCAR-4 ovarian = test system: OVCAR-4 ovarian
# CCRF-CEM leukemia = test system: CCRF-CEM leukemia
# LOX IMVI melanoma = test system: LOX IMVI melanoma
# PC-3 prostate = test system: PC-3 prostate
# HOP-92 NSCLC = test system: HOP-92 NSCLC
# KM12 colon = test system: KM12 colon
# NCI-H23 lung = test system: NCI-H23 lung
# K-562 leukemia = test system: K-562 leukemia
# MOLT-4 leukemia = test system: MOLT-4 leukemia
# OVCAR-8 ovarian = test system: OVCAR-8 ovarian
# SF-295 CNS = test system: SF-295 CNS
# SK-MEL-2 melanoma = test system: SK-MEL-2 melanoma
# SK-MEL-28 melanoma = test system: SK-MEL-28 melanoma
# SK-MEL-5 melanoma = test system: SK-MEL-5 melanoma
# 786-0 renal = test system: 786-0 renal
# SNB-75 CNS = test system: SNB-75 CNS
# CAKI-1 renal = test system: CAKI-1 renal
# UACC-62 melanoma = test system: UACC-62 melanoma
# DU-145 prostate = test system: DU-145 prostate
# NCI-H226 lung = test system: NCI-H226 lung
# HCT-15 colon = test system: HCT-15 colon
# NCI-H460 lung = test system: NCI-H460 lung
# OVCAR-3 ovarian = test system: OVCAR-3 ovarian
structure (smiles),measurement,setting,value
O=C1CS/C(=N/S(=O)(=O)c2ccc(N3N=C4c5ccccc5CC4C3c3cccs3)cc2)N(c2ccccc2)C1 (stereo unspecified),GI50,BT-549 breast,21.4 µM
same,TGI,BT-549 breast,> 100 µM
same,GI50,SN12C renal,34.3 µM
same,TGI,SN12C renal,> 100 µM
same,GI50,IGROV1 ovarian,19.5 µM
same,TGI,IGROV1 ovarian,> 100 µM
same,GI50,UO-31 renal,69.3 µM
same,TGI,UO-31 renal,> 100 µM
same,GI50,RXF 393 renal,41 µM
same,TGI,RXF 393 renal,> 100 µM
same,GI50,SF-539 CNS,27.8 µM
same,TGI,SF-539 CNS,99.2 µM
same,GI50,HCC-2998 colon,20.5 µM
same,TGI,HCC-2998 colon,48.5 µM
same,GI50,U251 CNS,28 µM
same,TGI,U251 CNS,> 100 µM
same,GI50,HCT-116 colon,12.5 µM
same,TGI,HCT-116 colon,27.4 µM
same,GI50,MDA-MB-231 breast,21.4 µM
same,TGI,MDA-MB-231 breast,84.8 µM
same,GI50,SW-620 colon,45.2 µM
same,TGI,SW-620 colon,> 100 µM
same,GI50,NCI-H522 lung,23.8 µM
same,TGI,NCI-H522 lung,> 100 µM
same,GI50,EKVX NSCLC,39.5 µM
same,TGI,EKVX NSCLC,> 100 µM
same,GI50,NCI/ADR-RES ovarian,> 100 µM
same,TGI,NCI/ADR-RES ovarian,> 100 µM
same,GI50,MDA-MB-435,29.5 µM
same,TGI,MDA-MB-435,> 100 µM
same,GI50,RPMI-8226 leukemia,31 µM
same,TGI,RPMI-8226 leukemia,> 100 µM
same,GI50,A549 NSCLC,47.2 µM
same,TGI,A549 NSCLC,> 100 µM
same,GI50,T-47D breast,69.2 µM
same,TGI,T-47D breast,> 100 µM
same,GI50,SNB-19 CNS,55.7 µM
same,TGI,SNB-19 CNS,> 100 µM
same,GI50,HS 578T breast,20.5 µM
same,TGI,HS 578T breast,83.7 µM
same,GI50,MCF7 breast,88.8 µM
same,TGI,MCF7 breast,> 100 µM
same,GI50,SF-268 CNS,> 100 µM
same,TGI,SF-268 CNS,> 100 µM
same,GI50,HOP-62 NSCLC,17.4 µM
same,TGI,HOP-62 NSCLC,49.2 µM
same,GI50,ACHN renal,22.1 µM
same,TGI,ACHN renal,78.7 µM
same,GI50,SK-OV-3 ovarian,> 100 µM
same,TGI,SK-OV-3 ovarian,> 100 µM
same,GI50,HT29 colon,61 µM
same,TGI,HT29 colon,> 100 µM
same,GI50,OVCAR-5 ovarian,34.6 µM
same,TGI,OVCAR-5 ovarian,> 100 µM
same,GI50,COLO 205 colon,57.2 µM
same,TGI,COLO 205 colon,> 100 µM
same,GI50,M14 melanoma,39.1 µM
same,TGI,M14 melanoma,> 100 µM
same,GI50,UACC-257 melanoma,42.3 µM
same,TGI,UACC-257 melanoma,> 100 µM
same,GI50,OVCAR-4 ovarian,> 100 µM
same,TGI,OVCAR-4 ovarian,> 100 µM
same,GI50,CCRF-CEM leukemia,36.8 µM
same,TGI,CCRF-CEM leukemia,> 100 µM
same,GI50,LOX IMVI melanoma,21.2 µM
same,TGI,LOX IMVI melanoma,51 µM
same,GI50,PC-3 prostate,45 µM
same,TGI,PC-3 prostate,> 100 µM
same,GI50,HOP-92 NSCLC,79.9 µM
same,TGI,HOP-92 NSCLC,> 100 µM
same,GI50,KM12 colon,28.4 µM
same,TGI,KM12 colon,88.4 µM
same,GI50,NCI-H23 lung,24.2 µM
same,TGI,NCI-H23 lung,63.5 µM
same,GI50,K-562 leukemia,10.3 µM
same,TGI,K-562 leukemia,93.5 µM
same,GI50,MOLT-4 leukemia,0.0146 µM
same,TGI,MOLT-4 leukemia,34.8 µM
same,GI50,OVCAR-8 ovarian,25.4 µM
same,TGI,OVCAR-8 ovarian,> 100 µM
same,GI50,SF-295 CNS,32.7 µM
same,TGI,SF-295 CNS,> 100 µM
same,GI50,SK-MEL-2 melanoma,60.2 µM
same,TGI,SK-MEL-2 melanoma,> 100 µM
same,GI50,SK-MEL-28 melanoma,> 100 µM
same,TGI,SK-MEL-28 melanoma,> 100 µM
same,GI50,SK-MEL-5 melanoma,38.2 µM
same,TGI,SK-MEL-5 melanoma,> 100 µM
same,GI50,786-0 renal,22.1 µM
same,TGI,786-0 renal,> 100 µM
same,GI50,SNB-75 CNS,> 100 µM
same,TGI,SNB-75 CNS,> 100 µM
same,GI50,CAKI-1 renal,74.5 µM
same,TGI,CAKI-1 renal,> 100 µM
same,GI50,UACC-62 melanoma,16.1 µM
same,TGI,UACC-62 melanoma,38.9 µM
same,GI50,DU-145 prostate,30.7 µM
same,TGI,DU-145 prostate,> 100 µM
same,GI50,NCI-H226 lung,22.3 µM
same,TGI,NCI-H226 lung,93.8 µM
same,GI50,HCT-15 colon,35.5 µM
same,TGI,HCT-15 colon,> 100 µM
same,GI50,NCI-H460 lung,> 100 µM
same,TGI,NCI-H460 lung,> 100 µM
same,GI50,OVCAR-3 ovarian,> 100 µM
same,TGI,OVCAR-3 ovarian,> 100 µM
